Data taken from patent US8835476B2, “Synthesis of novel antimicrobials” (priority 2005, dated 2014).
Values after ≈ are worked out from the molar mass of the structure shown. Where two headings read alike, the source gives them in different places.

What was measured:
[1] = test system: S. liquefaciens ATCC 27592; experiment: Broth microdilution MIC, ATCC strains; type: cell-based; conditions: read-out: MIC (growth inhibition, microdilution method)
In short: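 Clinical organisms, randomly drawn NAUTICA urinary isolates, and ATCC reference strains tested by NCCLS M7-A6 broth microdilution at 5×10^5 CFU/ml. Incubation 16 to 20 hours, 35° C, ambient air; MIC defined as lowest concentration without visible growth.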

[2] = test system: A. baumanii clinical isolates; experiment: Broth microdilution MIC, clinical isolate strains (NAUTICA); type: cell-based; conditions: Table 4B; each table row is one clinical isolate; unit assumed
Description: (§1) All clinical isolates tested were from The North American Urinary Tract Infection Collaborative Alliance (NAUTICA) which is a UTI surveillance study involving 40 medical centres (30 from the US and 10 from Canada). Each centre submitted up to 50 consecutive outpatient midstream urine isolates. All isolates were deemed significant urinary tract pathogens by individual laboratory criteria and identified to the species level by each laboratory's existing protocol. Isolates were transported to the coordinating laboratory (Health Sciences Centre, Winnipeg, Canada) on charcoal swabs. Only one isolate per patient was accepted. Upon receipt, isolates were cultured by the coordinating laboratory, stocked in skim milk, and stored at −80° C. awaiting reference antibiotic susceptibility testing. Elementary demographic information was also compiled for each isolate. Isolates were selected randomly from the above pool to represent 18 different species of Enterobacteriaceae and non-Enterobacteriaceae. An average of 5 strains of each species were tested for a total of 93 organisms. In addition, 23 reference (ATCC) [both gram negative and gram positive] strains were tested.
(§2) Susceptibilities to the compounds were determined using the National Committee for Clinical Laboratory Standards (NCCLS) M7-A6 broth microdilution method. […] DMSO controls were incorporated into the panel to mimic the quantity of DMSO used in dissolving some of the compounds at the higher concentrations. Each final panel well volume was 100 μl with a bacterial inoculum of 5×10^5 colony forming units (CFU)/ml. Panels were read following 16 to 20 hours of incubation at 35° C. in ambient air. The minimum inhibitory concentration (MIC) was defined as the lowest concentration of antimicrobial inhibiting visible growth. Quality control (QC) was performed using four ATCC QC organisms that were run with every batch set up to insure reproducibility.

[3] = test system: B. cepacia clinical isolates; experiment: as above; type: cell-based; conditions: unit assumed
Description: as §1, §2

[4] = test system: C. amalonaticus clinical isolates; experiment: as above; type: cell-based; conditions: unit assumed
Description: as §1, §2

[5] = test system: C. freundii clinical isolates; experiment: as above; type: cell-based; conditions: in µg/mL (unit assumed)
Description: as §1, §2

[6] = test system: C. koseril clinical isolates; experiment: as above; type: cell-based; conditions: unit assumed
Description: as §1, §2

[7] = test system: E. aerogenes clinical isolates; experiment: as above; type: cell-based; conditions: unit assumed
Description: as §1, §2

[8] = test system: E. cloacae clinical isolates; experiment: as above; type: cell-based; conditions: unit assumed
Description: as §1, §2

[9] = test system: E. coli clinical isolates; experiment: as above; type: cell-based; conditions: unit assumed
Description: as §1, §2

[10] = test system: K. oxytoca clinical isolates; experiment: as above; type: cell-based; conditions: unit assumed
Description: as §1, §2

[11] = test system: K. pneumoniae clinical isolates; experiment: as above; type: cell-based; conditions: unit assumed
Description: as §1, §2

[12] = test system: M. morganii clinical isolates; experiment: as above; type: cell-based; conditions: unit assumed
Description: as §1, §2

[13] = test system: P. mirabilis clinical isolates; experiment: as above; type: cell-based; conditions: unit assumed
Description: as §1, §2

[14] = test system: P. retgerri clinical isolates; experiment: as above; type: cell-based; conditions: unit assumed
Description: as §1, §2

[15] = test system: P. stuartii clinical isolates; experiment: as above; type: cell-based; conditions: Table 4B; each table row is one clinical isolate; unit assumed
Description: as §1, §2

[16] = test system: P. vulgaris clinical isolates; experiment: as above; type: cell-based; conditions: unit assumed
Description: as §1, §2

[17] = test system: Ps. aeruginosa clinical isolates; experiment: as above; type: cell-based; conditions: Table 4B; each table row is one clinical isolate; unit assumed
Description: as §1, §2

[18] = test system: S. liquifaciens clinical isolates; experiment: as above; type: cell-based; conditions: unit assumed
Description: as §1, §2

[19] = test system: S. maltophilia clinical isolates; experiment: as above; type: cell-based; conditions: Table 4B; each table row is one clinical isolate; unit assumed
Description: as §1, §2

[20] = test system: S. marcescens clinical isolates; experiment: as above; type: cell-based; conditions: unit assumed
Description: as §1, §2

E. coli BL21 cells = experiment: Inhibition of E. coli growth in liquid culture (OD 600 nm); type: cell-based; conditions: for growth of E. coli in liquid culture: FIG. 11
Description: Compounds to be tested were dissolved in ethanol or DMSO and subsequently diluted into of Luria broth. The final concentration of ethanol (2%, v/v) or DMSO (1%, v/v) had minimal effect on growth rate. Culture tubes were subsequently inoculated with E. coli BL21 or D22 cells to an optical density (at 600 nm) of 0.01 and incubated on a rotary shaker at 37° C. The optical density at 600 nm of 100 μl samples was measured at indicated time points.

[21] = Table 4B, each table row is one clinical isolate
[22] = clinical isolates, one table line per isolate

Row | Compound | MIC ([1]; S. liquefaciens ATCC 27592) [µg/mL] | MIC, A. BAUMANII [2] [µg/mL] | MIC, B. CEPACIA [3, 21] [µg/mL] | MIC, C. AMALONATICUS [4, 21] [µg/mL] | MIC, C. FREUNDII [5, 21] | MIC, C. KOSERI [6, 21] [µg/mL] | MIC, E. AEROGENES [7, 21] [µg/mL] | MIC, E. CLOACAE [8, 21] [µg/mL] | MIC, E. COLI [9, 21] [µg/mL] | MIC, K. OXYTOCA [10, 21] [µg/mL] | MIC, K. PNEUMONIAE [11, 21] [µg/mL] | MIC, M. MORGANII [12, 21] [µg/mL] | MIC, P. MIRABILIS [13, 21] [µg/mL] | MIC, P. RETTGERI [14, 21] [µg/mL] | MIC, P. STUARTII [15] [µg/mL] | MIC, P. VULGARIS [16, 21] [µg/mL] | MIC, PS. AER [17] [µg/mL] | MIC, S. LIQUEFACIENS [18, 21] [µg/mL] | MIC, S. MALTOPHILIA [19] [µg/mL] | MIC, S. MARCESCENS [20, 21] [µg/mL] | also measured
1 | CCOC(=O)c1cc(-c2nnn(C)n2)c(-c2ccc(F)cc2)s1 [DNM-125, ethyl 5-(4-fluorophenyl)-4-(2-methyl-2H-tetrazol-5-yl)thiophene-2-carboxylate] | > 16 | > 16 | > 16 | > 16 | >16 | > 16 | > 16 | > 16 | > 16 | > 16 | > 16 | > 16 | > 16 | > 16 | > 16 | > 16 | > 16 | > 16 | > 16 | > 16 | melting point: 108 to 110 °C
2 | COC(=O)c1cc(-c2nnn(C)n2)c(C(=O)OC)s1 [DNM-114, 3-(2-methyl-2H-tetrazol-5-yl)-thiophene-2,5-dicarboxylic acid dimethyl ester] |  |  |  |  |  |  |  |  |  |  |  |  |  |  |  |  |  |  |  |  | MIC [1]: 128 µg/mL (≈ 453 µM); MIC, B. CEPACIA [3, 22]: 64 µg/mL (≈ 227 µM); MIC, C. AMALONATICUS [4, 22]: 128 µg/mL (≈ 453 µM); MIC, C. FREUNDII [5, 22]: 128; MIC, C. KOSERI [6, 22]: 128 µg/mL (≈ 453 µM); MIC, E. AEROGENES [7, 22]: 128 µg/mL (≈ 453 µM); MIC, E. CLOACAE [8, 22]: 128 µg/mL (≈ 453 µM); MIC, E. COLI [9, 22]: 128 µg/mL (≈ 453 µM); MIC, K. OXYTOCA [10, 22]: 128 µg/mL (≈ 453 µM); MIC, K. PNEUMONIAE [11, 22]: 128 µg/mL (≈ 453 µM); MIC, M. MORGANII [12, 22]: 128 µg/mL (≈ 453 µM); MIC, P. MIRABILIS [13, 22]: 128 µg/mL (≈ 453 µM); MIC, P. RETTGERI [14, 22]: 128 µg/mL (≈ 453 µM); MIC, P. VULGARIS [16, 22]: 128 µg/mL (≈ 453 µM); MIC, S. LIQUEFACIENS [18, 22]: 128 µg/mL (≈ 453 µM); MIC, S. MARCESCENS [20, 22]: 128 µg/mL (≈ 453 µM); melting point: 121 to 122 °C
3 | Fc1ccc(-c2cc(-c3nnn[nH]3)c(-c3ccc(F)cc3)s2)cc1 [DNM-131, 5-(2,5-Bis(4-fluorophenyl)thiophen-3-yl)-1H-tetrazole] | > 32 | > 32 | > 32 | > 32 | >32 | > 32 | > 32 | > 32 | > 32 | > 32 | > 32 | > 32 | > 32 | > 32 | > 32 | > 32 | > 32 | > 32 | > 32 | > 32 | growth of E. coli in liquid culture (E. coli BL21 cells; 10 μM): partial inhibition; growth of E. coli in liquid culture (E. coli BL21 cells; 0.1 or 1 mM): no growth
4 | Cn1nnc(-c2cc(-c3ccc(F)cc3)sc2-c2ccc(F)cc2)n1 [DNM-132, 5-(2,5-bis(4-fluorophenyl)thiophen-3-yl)-2-methyl-2H-tetrazole] | > 16 | > 16 | > 16 | > 16 | >16 | > 16 | > 16 | > 16 | > 16 | > 16 | > 16 | > 16 | > 16 | > 16 | > 16 | > 16 | > 16 | > 16 | > 16 | > 16 | melting point: 150 to 152 °C
5 | COC(=O)c1sc(-c2ccc(F)cc2)cc1-c1nnn(C)n1 [DNM-144, 5-(4-fluoro-phenyl)-3-(2-methyl-2H-tetrazol-5-yl)-thiophene-2-carboxylic acid methyl ester] | > 8 | > 8 | > 8 | > 8 | >8 | > 8 | > 8 | > 8 | > 8 | > 8 | > 8 | > 8 | > 8 | > 8 | > 8 | > 8 | > 8 | > 8 | > 8 | > 8 | melting point: 131.5 to 132.5 °C
6 | O=C(O)c1sc(-c2ccc(F)cc2)cc1-c1nnn[nH]1 [DNM-141, 5-(4-Fluoro-phenyl)-3-(1H-tetrazol-5-yl)-thiophene-2-carboxylic acid] | > 16 | > 16 | > 16 | > 16 | >16 | > 16 | > 16 | > 16 | > 16 | > 16 | > 16 | > 16 | > 16 | > 16 | > 16 | > 16 | > 16 | > 16 | > 16 | > 16 | growth inhibitory effect, E. coli liquid culture (E. coli BL21 cells; concentrations tested in FIG. 11): no apparent effect
